# pEC50: −log10 of the molar value. Values joined by “and” are separate entries in the source; they are usually repeats but may differ in a detail not shown here. Equal entries are not always repeated. Where two headings read alike, the source gives them in different places.
# How the values were obtained:
# [1] = system: HRV14-induced vNOX; assay: Spectrophotometric vNOX activity assay (NADH oxidation) with HRV-infected MCF-10A cells
# [2] = system: tNOX-like activity (vNOX); assay: NADH oxidase activity at the surface of HRV14-infected MCF-10A cells (tNOX-like activity, 22 min period); format: biochemical, human; details: 1 μM, added after 45 min
# Protocol: FIG. 11: NADH oxidase activity assayed for 90 min at the surface of MCF-10A human mammary epithelial cells. Capsaicin (1 μM) was added after 45 min and the assay was continued for an additional 45 min. Top Panel: No virus. Bottom Panel: MCF-10A human mammary cells infected with HRV 14. The MCF-10A cells normally lack a drug-inhibited NOX activity (lack tNOX). The normal, capsaicin-resistant constitutive NOX activity with a period length of 24 min is shown by the single downward pointing arrows. The triple arrows are tNOX-like activities with a period length of 22 min and which were inhibited by capsaicin. This activity appeared only in the virus-infected cells (see also FIG. 12). The upward pointing arrows denote a capsaicin-stimulated activity sometimes observed in proliferating endothelial cells present both with and without virus. tNOX-like activities (triple arrows) inhibited by 1 μM capsaicin now dominate the activity pattern.
# FIG. 12: As in FIG. 11 except 20 h post-infection with HRV 14. Top Panel: No virus. The control MCF-10A cells normally lack a drug-inhibited NOX activity (lack tNOX). Bottom Panel: MCF-10A cells 20 h post infection with HRV 14. The normal, capsaicin-resistant constitutive NOX activity with a period length of 24 min is shown by the single downward pointing arrows. […]
# [3] = system: MT-2 cells; assay: Toxicity to non-infected MT-2 cells by MTT utilization; format: cell-based, human
# Protocol: After 5 days, 20 μl of MTT stock solution (7.5 mg/ml) was added. […] Subsequently, 100 μl of 10% v/v Triton X100 in acidified isopropanol was added, and absorbance was determined at 550 nm with reference at 630 nm. The cytotoxic effect of EGCg was reflected by a decrease of the cell viability of mock infected cells in the presence of EGCg in comparison to mock infected cells without EGCg (OD 492 nm) was lower than the value of mock infected cells without EGCg. The cytotoxicity values are given as negative values. Positive values are recorded for a stimulatory effect on cell viability and/or an increase in cell proliferation. Testing the antiviral potency of various compositions was accomplished as follows. EGCg and EC were from Sigma (St. Louis, Mo.). Stock solutions of 100 mM were prepared in ethanol and serially diluted with water between 10^−3 molar and 10^−9 molar. […] Each experiment was in a fourfold assay.
# [4] = system: HXB II standard virus strain of HIV; assay: HIV-1 replication in MT-2 cells scored by p24 antigen production; format: cell-based
# From the text: (§1) The MT-2 cell line, which cells are retrovirus transformed, was used. Virus applied to the MT-2 cells was the HXB II standard virus strain of HIV, isolated early in the 1980's (HIV Research Community Standard Reference Gene Sequence Data Base No. 135829). […] The main characteristic of the HXBII virus strain was to induce syncytia (SI) in certain cells such as MT-2 cells. This permitted assessment of the production of HIV by light microscopy, and thus, by titration of supernatant, the amount of infectious virus. Virus replication was determined as follows. Antiviral activity was assessed at day four or five after infection by scoring p24 antigen production by a commercial kit (DuPont) and by titration of the supernatants. Each well of each concentration of compound was titrated in a fourfold assay. MT-2 cells (4×10^5 per well) were added to all titration steps. After incubation, 100 μl of supplemented RPMI 1640 was added. After 5 d, all wells were scored for SI formation by light microscopy. The highest dilution (titer) displaying at least one SI were scored as positive, and the highest titers were averaged. […] Both MT-2 cell and PBM cell supernatants were titered on MT-2 cells. Testing the antiviral potency of various compositions was accomplished as follows. EGCg and EC were from Sigma (St. Louis, Mo.). Stock solutions of 100 mM were prepared in ethanol and serially diluted with water between 10^−3 molar and 10^−9 molar. […] Each experiment was in a fourfold assay.
# [5] = system: HXB II standard virus strain of HIV; assay: HIV-1 replication in MT-2 cells scored by titration of supernatants (syncytia); format: cell-based
# From the text: as §1
# [6] = system: human peripheral blood lymphocytes; assay: Viability of human peripheral blood lymphocytes; format: cell-based; details: data not shown
# [7] = system: HIV-1 strain 952; assay: HIV-1 strain 952 infection of peripheral blood monocytes (p24 ELISA and syncytia titer on MT-2 cells); format: cell-based
# From the text: FIG. 4: ELISA of supernatant p24 antigen of HIV-1 strain 952 (solid line; solid symbols) and HIV-1 titer based on number of syncytia observed by light microscopy on day 5 by titration of the day 4 supernatants in previously uninfected MT-2 cells (dashed line; open symbols) as a measure of mature virus production after 4 d with HIV strain 952 (City Laboratory, Hamburg) and mononuclear cells in peripheral blood (PBMCs)=peripheral blood monocytes prepared from healthy volunteers, as described herein below. Assays were in triplicate ±standard deviations.
# As non-permanent cells, PBM cells were derived from freshly prepared pooled buffy coats from healthy blood donors. The PBM cells were isolated by Ficoll density gradient centrifugation and cultivated (stimulated with phytohemagglutinin) for 48 h in RPMI 1640 medium supplemented with 20% FBS and L-glutamine. PBMC tropic laboratory isolate No. 9.5 was used in the PBMC assays.
# Virus replication was determined as follows. Antiviral activity was assessed at day four or five after infection by scoring p24 antigen production by a commercial kit (DuPont) and by titration of the supernatants. […] After 5 d, all wells were scored for SI formation by light microscopy. The highest dilution (titer) displaying at least one SI were scored as positive, and the highest titers were averaged. […]
# [8] = system: HIV; assay: Infectivity of HIV in MT-2 cells or PBMCs at different control virus titers; format: cell-based
# [9] = system: human rhinovirus HRV 14; assay: HRV-HeLa test system: cytopathic effect of human rhinovirus in HeLa cells; format: cell-based; details: HRV 14, HeLa, XTT test 72 h post infection; read-out: EC50 inhibition of CPE
# [10] = system: HRV14; assay: HRV14-induced CPE in less sensitive (Berlin) HeLa strain, XTT test; format: cell-based, human rhinovirus; details: for pEC50: read-out: EC50 to prevent a cytopathic effect
# Protocol: Inhibition by CapsiVirol-T of the HRV cytopathic effect and effects on cell viability were tested using a HeLa strain which is less sensitive to tNOX inhibitors than certain other HeLa cells (Institute for Infectious Medicine, Berlin, Germany) (FIG. 17). In these studies, both CapsiVirol-T and EGCg, the principal green tea catechin, were tested. […] The test substance-containing medium was removed and the cells were infected with viruses at a multiplicity of infection of 0.1. For controls, virus infections were in the absence of the test substance. Mock infections were in the presence and absence of the test substance. Cell viability was measured in the XTT test directly at the days post infection (d.p.i.) indicated (FIG. 17). […] The cytopathic effect induced by a virus was determined from a decrease of cell viability (=decrease of […] nm in comparison to the mock infected control in the absence of the test substance). […] Cell viability was measured with the XTT test. Virus inoculation in the presence of CapsiVirol-T (without FCS) was for 30 min. […] Cell viability was monitored using the XTT test after 1, 2, and 3 days p.i. A control was at 1.5 h p.i. (in the figure 0 d p.i.) (FIG. 18). High OD values represent living cells, and low OD values represent cell damage. This damage is either induced by HRV14 (=cytopathic effect/CPE) or a toxic effect of the compound in mock-infected cells.
# [11] = system: mock-infected HeLa cells; assay: Toxicity (cell viability) in mock-infected HeLa cells, XTT test; format: cell-based, human; details: at EC50 concentrations (0.1 μM and below)
# Protocol: Inhibition by CapsiVirol-T of the HRV cytopathic effect and effects on cell viability were tested using a HeLa strain which is less sensitive to tNOX inhibitors than certain other HeLa cells (Institute for Infectious Medicine, Berlin, Germany) (FIG. 17). In these studies, both CapsiVirol-T and EGCg, the principal green tea catechin, were tested. […] The test substance-containing medium was removed and the cells were infected with viruses at a multiplicity of infection of 0.1. For controls, virus infections were in the absence of the test substance. Mock infections were in the presence and absence of the test substance. Cell viability was measured in the XTT test directly at the days post infection (d.p.i.) indicated (FIG. 17). […] The cytopathic effect induced by a virus was determined from a decrease of cell viability (=decrease of […] nm in comparison to the mock infected control in the absence of the test substance). Cell viability was monitored using the XTT test after 1, 2, and 3 days p.i. A control was at 1.5 h p.i. (in the figure 0 d p.i.) (FIG. 18). High OD values represent living cells, and low OD values represent cell damage. This damage is either induced by HRV14 (=cytopathic effect/CPE) or a toxic effect of the compound in mock-infected cells.
# [12] = system: Herpes simplex virus 1; format: cell-based; details: HeLa cells
# [13] = system: TMEV/GDVII virus, TMEV/Bean virus; format: cell-based, Theiler's murine encephalomyelitis virus; details: RAW macrophages
# [14] = system: HRV14; assay: HRV14 cytopathic effect in human osteoblast (hFOB) cells; details: between 1 and 1000 nM
# [15] = read-out: EC50 Cell Production I (Mar. 24, 2003), 73 h hrv-infected MCF-10A cells
# [16] = read-out: EC50 inhibition of vNOX
# [17] = read-out: EC50 Cell Production II (Apr. 01, 2003), 73 h hrv-infected MCF-10A cells
smiles,measurement,setting,value
CC(=O)Nc1ccc(O)cc1 [Acetaminophen],"EC50 inhibition of vNOX, range in words",[1],micromolar range
same,pEC50,[1]; [15],6.00
COc1cc(CNC(=O)CCCC/C=C/C(C)C)ccc1O [Capsaicin],tNOX-like activities with a period length of 22 min,[2],inhibited
same,pEC50,"[1]; read-out: EC50 Cell Production IV (May 01, 2003), 72 h HRV-infected MCF-10A cells",9.00
"Oc1cc(O)c2c(c1)O[C@H](c1ccc(O)c(O)c1)[C@H](O)C2 [EC, (−)-epicatechin]",toxicity by MTT utilization,[3],no toxicity
"O=C(O[C@@H]1Cc2c(O)cc(O)cc2O[C@@H]1c1cc(O)c(O)c(O)c1)c1cc(O)c(O)c(O)c1 [EGCg, (−)-epigallocatechin-3-gallate]",effect on p24 production,[4]; 1 nM,no effect
same,inhibition of virus production (p24) as compared to the virus control,"[4]; 10^−4 M, 4 or 5 d",93%
same,inhibition of virus replication (p24),"[4]; 10^−5 M, 4 or 5 d",45%
same,inhibitory effect (p24),[4]; 10^−6 and 10^−7 M,approximately 20%
same,reduction of titers,[5]; 1 nM,no reduction
same,"titrated virus, % of the virus control or EC control",[5]; 10^−5 M,20%
same,reduction of titers,[5]; 10^−6 and 10^−7 M,approximately 50%
same,reduction of titers,[5]; 10^−8 M,40%
same,reduction of MTT utilization,[3]; 10^−4 M,90%
same,cytotoxic effects by MTT utilization,[3]; dilutions of less than 10^−5 M,no cytotoxic effects
same,effect on viability,[6],without effect
same,infection (production of infective particles based on p24 assay),"[7]; 10 μM, PBMC, strain 952",prevented
same,pEC50,"[7]; PBMC supernatants, read-out: EC50 for inhibition of production of infective virus (syncytia formation after 5 days on MT-2 cells)",> 6.00
same,infectivity (syncytia reassay),[8]; 1 μM,almost entirely prevented
same,pEC50,"[8]; control virus production of 14,000 infective particles/ml, read-out: EC50 reducing infectivity of HIV",~6.00
same,pEC50,"[8]; control virus production of 40,000 infective particles/ml, read-out: EC50 reducing infectivity of HIV",~5.00
same,pEC50,"[8]; read-out: EC50 for prevention of infection (day 4 supernatants reassayed on MT-2 cells, syncytia after 5 days)",~7.00
same,pEC50,[9],~6.00
same,fold higher concentration compared to CapsiVirol-T required to achieve inhibition,[10],≥ 10 fold
same,pEC50,[10]; day 1,> 7.00
same,pEC50,[10]; day 2,7.00
same,toxicity,[11],not toxic
same,infection,[12],prevented
same,infection,[13],prevented
same,pEC50,[1]; [16],8.00
CC(C)Cc1ccc(C(C)C(=O)O)cc1 (stereo not shown) [Ibuprofen],"EC50 inhibition of vNOX, range in words",[1],micromolar range
same,pEC50,[1]; [15],6.00
same,pEC50,[1]; [16],~5.00
COc1ccc2cc([C@H](C)C(=O)O)ccc2c1 [Naproxen],"EC50 inhibition of vNOX, range in words",[1],micromolar range
same,pEC50,[1]; [15],5.30
same,pEC50,[1]; [17],5.70
same,pEC50,[1]; [16],~5.00
COc1cc(CN)ccc1O [Vanillylamine],pEC50,[1]; [16],10.00
"[Cl-].[Cl-].[Zn+2] [ZnCl2, zinc chloride]",reduction of the cytopathic effect,[14]; virus dilution of 1:20,71±9%
same,reduction of the cytopathic effect,[14]; virus dilution of 1:50,50%±14%
same,pEC50,[1]; [15],8.00
same,pEC50,[1]; [17],8.00
same,pEC50,[1]; [16],~8.00 and 8.00

# Reference: US20070077316A1, “Compositions and methods for treating and preventing virus infections” (priority 2005, published 2007)
